Test results as given in US20150250173A1, “PESTICIDALLY ACTIVE MIXTURES COMPRISING ANTHRANILAMIDE COMPOUNDS” (BASF SE, priority 2012, published 2015).
Like-named read-outs stand apart in the source and are kept apart here.

What was measured:
Type in all cases: cell-based
Details in all cases: single compound, 7 days
[1] = system: Pyricularia oryzae
[2] = system: Septoria tritici; assay: Activity against leaf blotch on wheat caused by Septoria tritici (Septtr), microtiter plate
[3] = system: Phytophthora infestans
[4] = system: Botrytis cinerea; assay: Activity against the grey mold Botrytis cinerea in the microtiterplate test (Botrci)

For `CO/C=C(/C(=O)OC)c1ccccc1Oc1cc(Oc2ccccc2C#N)ncn1` [Azoxystrobin], the Observed efficacy ([1]; 0.016 ppm) was 38.

`O=C(Nc1ccccc1-c1ccc(Cl)cc1)c1cccnc1Cl` [Boscalid] was tested, and the Observed efficacy ([1]; 16 ppm) was 10.

`CCS(CC)=NC(=O)c1cc(Cl)cc(C)c1NC(=O)c1cc(C(F)(F)F)nn1-c1ncccc1Cl` [Compound I-11, 2-(3-chloro-2-pyridyl)-N-[2-methyl-4-chloro-6-[(diethyl-λ^4-sulfanylidene)carbamoyl]phenyl]-5-(trifluoromethyl)pyrazole-3-carboxamide] showed an Observed efficacy ([1]; 1 ppm) of 0, an Observed efficacy ([1]; 4 ppm) of 3 and an Observed efficacy ([1]; 63 ppm) of 10.

`CCS(CC)=NC(=O)c1cc(Cl)cc(Cl)c1NC(=O)c1cc(C(F)(F)F)nn1-c1ncccc1Cl` [Compound I-16, 2-(3-chloro-2-pyridyl)-N-[2,4-dichloro-6-[(diethyl-λ^4-sulfanylidene)carbamoyl]phenyl]-5-(trifluoromethyl)pyrazole-3-carboxamide] showed an Observed efficacy ([2]; 4 ppm) of 16, an Observed efficacy ([2]; 63 ppm) of 17 and an Observed efficacy ([3]; 16 ppm) of 23. The Observed efficacy ([1]; 1 ppm) was 3 and the Observed efficacy ([1]; 4 ppm) was 4.

`Cc1cc(Cl)cc(C(=O)N=S(C(C)C)C(C)C)c1NC(=O)c1cc(C(F)(F)F)nn1-c1ncccc1Cl` [Compound I-21, 2-(3-chloro-2-pyridyl)-N-[2-methyl-4-chloro-6-[(bis-2-propyl-λ^4-sulfanylidene)carbamoyl]phenyl]-5-(trifluoromethyl)pyrazole-3-carboxamide] gave an Observed efficacy ([2]; 4 ppm) of 12, an Observed efficacy ([1]; 1 ppm) of 0 and an Observed efficacy ([1]; 4 ppm) of 0. For the same compound, the Observed efficacy ([4]; 4 ppm) was 0 and the Observed efficacy ([4]; 16 ppm) was 4.

With `Fc1ccc([C@]2(Cn3cncn3)O[C@H]2c2ccccc2Cl)cc1` [Epoxiconazol] the Observed efficacy ([4]; 0.25 ppm) was 59.

Work on `CO/N=C(/C1=NOCCO1)c1ccccc1Oc1ncnc(Oc2ccccc2Cl)c1F` [Fluoxastrobin] yielded an Observed efficacy ([2]; 0.25 ppm) of 70.

`CO/C=C(/C(=O)OC)c1ccccc1COc1cccc(C(F)(F)F)n1` [Picoxystrobin] was tested, and the Observed efficacy ([2]; 0.063 ppm) was 53 and the Observed efficacy ([1]; 0.063 ppm) was 72.

Compound `CCCN(CCOc1c(Cl)cc(Cl)cc1Cl)C(=O)n1ccnc1` [Prochloraz] has an Observed efficacy ([4]; 0.016 ppm) of 14.

For `OC(Cc1ccccc1Cl)(Cn1nc[nH]c1=S)C1(Cl)CC1` (stereo not shown) [Prothioconazol], the Observed efficacy ([2]; 0.063 ppm) was 62.

`COC(=O)N(OC)c1ccccc1COc1ccn(-c2ccc(Cl)cc2)n1` [Pyraclostrobin] gave an Observed efficacy ([3]; 0.063 ppm) of 10, an Observed efficacy ([1]; 0.004 ppm) of 39 and an Observed efficacy ([1]; 0.016 ppm) of 49.

`CON=C(C(=O)OC)c1ccccc1CON=C(C)c1cccc(C(F)(F)F)c1` [Trifloxystrobin] was tested, and the Observed efficacy ([2]; 0.016 ppm) was 62, the Observed efficacy ([1]; 0.016 ppm) was 29 and the Observed efficacy ([1]; 0.063 ppm) was 29.

Compound Mancozeb has an Observed efficacy ([2]; 4 ppm) of 48.
